Assay in all cases: NCI tumour cell line growth inhibition, 48 h
In assay [1] the test system is RXF-631 renal.
Assay [2] concerns DLD-1 colon.
For assay [3], the system named is DMS 114 small cell lung.
The test system of assay [4] is DMS 273 small cell lung.
For assay [5], the system named is XF 498 CNS.
Assay [6] relates to SNB-78 CNS.
The test system of assay [7] is LXFL 529 NSCLC.
In assay [8] the test system is HOP-18 NSCLC.
Assay [9] deals with MDA-N.
The test system of assay [10] is P388/ADR leukemia.
Assay [11] deals with P388 leukemia.
For assay [12], the system named is SN12K1 renal.

From PubChem BioAssay (NCI) come the findings set out here.

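Tested at 5 concentrations; 48 h exposure; 96-well plates; endpoints linearly interpolated, else capped at highest concentration. GI50 marks 50% less growth. TGI marks complete inhibition of growth.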

Regarding `O=C(Nc1ccc(Cl)cc1C(=O)O)c1ccc([N+](=O)[O-])cc1`, the TGI in assay [1] was > 100 µM; in [2], 30.9 µM; in [3], 36.8 µM; in assay [4], 67.1 µM; in [5], 90.1 µM; in assay [6], 67.2 µM. Besides, the TGI in [7] was determined as 48.7 µM.

In the case of `CC(C)COC1Sc2ccccc2S1`, the TGI in assay [8] amounted to 30.2 µM; in [2] it was 35.1 µM; in assay [3], 39.1 µM; in assay [4], 43.1 µM; in assay [6], 65.1 µM; in assay [7] it was 49.3 µM.

On to `CCOC(=N)CC(=O)Nc1ccccc1`, for which the TGI in [8] was > 31.6 µM; in assay [2], > 46.4 µM; in assay [3] it was > 46.4 µM; in assay [4], > 46.4 µM; in assay [5] it was > 67 µM; in assay [6] it was > 46.4 µM. For the same compound, in [7], the TGI was > 46.4 µM.

As to `NC(Cc1c[nH]c2ccc([N+](=O)[O-])cc12)C(=O)O` (stereo not drawn), in assay [9], the TGI was > 100 µM.

Turning to `N#C/C(=C1\OC(=N)C(c2ccccc2)C1=O)c1ccccc1` (stereo not drawn), the TGI was 92.3 µM in assay [8]; 39.1 µM in [2]; > 82.2 µM in assay [3]; > 100 µM in [4]; 46.2 µM in [5]; > 100 µM in assay [6]. The compound also gave a TGI in assay [7] of 36.3 µM.

`COS(C)(=O)=O`: the TGI in [9] is > 2 µM.

As to `Oc1ccc2ccccc2c1C=NCc1c(O)ccc2ccccc12`, the TGI in assay [9] is > 100 µM.

`COc1ccc2c(c1)CCc1cc(OC)ccc1/[N+]([O-])=[N+]\2[O-]` registered a TGI in [9] of 29.8 µM.

As for `C[N+](C)(C)c1cc[c]([Sn]([c]2ccc([N+](C)(C)C)cc2)([c]2ccc([N+](C)(C)C)cc2)[c]2ccc([N+](C)(C)C)cc2)cc1`, the GI50 in assay [1], in [8], in [2], in assay [3], in assay [4] and in assay [5] was > 100 µM in each case. Moreover, in assay [7], the GI50 was > 100 µM. Moreover, the TGI in assay [1], in [8], in [2], in [3], in [4] and in [5] was > 100 µM each time. Further, in assay [7], the TGI is > 100 µM.

In the case of `CC(=O)Nc1cc2cc(NS(=O)(=O)c3ccc(Cl)c(Cl)c3)ccc2oc1=O`, the TGI in assay [9] is > 100 µM.

For the compound `CC1C=CC(C(N)C(=O)O)O1` (stereo not drawn), the TGI in [2], in [3], in assay [4], in [5], in [6] and in [7] was > 100 µM in each case.

As for `CC(=O)Nc1ccc(S(=O)(=O)N=S(C)C)cc1`, in [9], the TGI was > 100 µM.

In the case of `CC1=CP(=O)(c2ccccc2)C=C(C)C1=C(Cl)Cl` (stereo not drawn), the TGI worked out at 45.2 µM in assay [8]; 27.1 µM in assay [2]; 28.9 µM in assay [3]; 9.22 µM in assay [4]; 34.8 µM in assay [5]; 9.03 µM in assay [6]. The compound further returned a TGI in assay [7] of 11.3 µM.

For the compound `O=C(CC1C(=O)Nc2ccccc2S1(=O)=O)Nc1ccc(Cl)cc1` (stereo not drawn), the TGI in assay [1] is > 100 µM; in [2], > 100 µM; in assay [3], 55.7 µM; in assay [4], 45.6 µM; in assay [5], 30.5 µM; in [6], 93.8 µM. The TGI in [7] worked out at 78.2 µM.

For the compound `Cc1ccc(-c2nc(-c3nccc4ccccc34)oc2-c2ccccc2)cc1`, the TGI in [9] was > 100 µM.

As to `O=C(N/C(=C\c1ccccc1O)c1nc2ccccc2[nH]1)c1ccccc1`, the TGI in assay [8], in assay [3], in assay [4], in [5], in assay [6] and in [7] was > 100 µM throughout.

On to `CCCc1nc(Cl)c(Cl)c(Cl)n1`, for which, in assay [9], the TGI is > 100 µM.

`CCCCNC(=S)OCCC(C)CCCC(C)C` (stereo not drawn): the TGI in assay [8], in [2], in assay [3], in [4], in [5] and in assay [6] was > 100 µM each time. Besides, the TGI in [7] was > 100 µM.

Regarding `O=C1NC2(CCCCC2)C(=O)N1CCN(CCCl)CCCl`, the TGI is 234 µM in assay [10]; > 25 µM in assay [9]; > 250 µM in [8]; > 250 µM in assay [2]; 189 µM in assay [11]; 248 µM in assay [3]. For the same compound, the TGI was > 223 µM in assay [4], 39.6 µM in assay [5], > 245 µM in assay [6] and > 250 µM in assay [12].

For the compound `COc1ccc(O)cc1C(O)c1ccccc1` (stereo not drawn), the TGI in assay [8], in [2], in [3], in assay [4], in [5] and in [6] was > 100 µM each time. The TGI in [7] is > 100 µM.

`OC1CCCC2CCC[N-]C12.OC1CCCC2CCC[N-]C12.[O]=[V][OH]` (stereo not drawn): in assay [9], the GI50 is 5.86 µM and the TGI is > 100 µM.

In [9], `Cc1c2ccncc2c(C)c2c1sc1ccccc12` displayed a TGI of 47.6 µM.

For `Nc1nc2c(-c3ccc([N+](=O)[O-])cc3)nnn2c2ccccc12`, the TGI in assay [8], in assay [2], in assay [4], in assay [5], in [6] and in assay [7] was > 100 µM in each case.

Consider `O=C(N=c1nc(NC(=O)c2ccccc2)ss1)c1ccccc1`, for which the values for the TGI in assay [3], in assay [4] and in assay [6] were 90.3 µM, 89.1 µM and > 100 µM, respectively.

`CC(=O)NNc1nc(C)c(C(=O)NNC(=O)C(=O)Nc2c([N+](=O)[O-])ccc(C)c2C)s1`: the TGI in assay [2], in [3], in [4], in assay [5], in assay [6] and in assay [7] was > 100 µM each time.

`O=C(Nc1ccccc1)OC1OC(COC(=O)c2ccccc2)C(OC(=O)c2ccccc2)C1OS(=O)(=O)c1ccc([N+](=O)[O-])cc1` (stereo not drawn): the TGI in assay [9] is > 100 µM.

`COc1cc([N+](=O)[O-])c(S(=O)(=O)O)cc1-n1nc(C(=O)Nc2ccccc2)n[n+]1-c1cc(S(=O)(=O)[O-])c([N+](=O)[O-])cc1OC`: the TGI in assay [9] is > 100 µM.

In the case of `COc1ccc(/C=C/C(=O)c2c(-c3ccccc3)nn(C)c(=O)c2N2CCOCC2)cc1`, the TGI was > 100 µM in assay [1]; > 100 µM in assay [8]; > 100 µM in assay [2]; > 100 µM in assay [3]; > 100 µM in assay [4]; 83.9 µM in assay [5]. The TGI in assay [7] is > 100 µM.

`c1ccc2c(c1)Cc1c(Cc3csc4ccccc34)ccc3cccc-2c13`: the TGI in assay [1], in assay [2], in assay [3], in [4], in assay [5] and in [6] was > 100 µM each time. In assay [7], the TGI was > 100 µM.

On to `Cc1ccc(/C=C/C(=O)c2sc(-n3nc(-c4ccccc4)cc3-c3ccccc3)nc2C)cc1`, for which the TGI in assay [8], in assay [2], in assay [3], in [4] and in assay [6] was > 100 µM in each case.

Turning to `O=C(CCC(=O)Nc1cccc(C(F)(F)F)c1)CC(=O)c1ccc2ccccc2c1`, the TGI in assay [1], in assay [8], in assay [2], in [3], in assay [4] and in assay [5] was > 100 µM throughout. Moreover, the TGI in assay [6] and in [7] was > 100 µM each time.

With `COc1cc2c(c(OC)c1OC)-c1ccc(SC)c(=O)cc1[C@@H](NC(=O)C(F)(F)F)CC2`, the TGI in assay [9] was < 0.01 µM; in assay [8], > 100 µM; in [2] it was > 100 µM; in [4], > 100 µM; in assay [5], 2.37 µM; in [7], > 100 µM.

For `COc1cc(/C=C(\NC(=O)c2ccccc2)c2nc3ncncc3[nH]2)cc(OC)c1OC`, the TGI in assay [1], in [2], in assay [4], in assay [5], in assay [6] and in [7] was > 100 µM throughout.

`NS(=O)(=O)c1ccc(NC(=O)C2C(=O)C(=O)N(c3ccc(S(N)(=O)=O)cc3)C2=O)cc1` (stereo not drawn): the TGI in assay [1], in [8], in [2], in assay [3], in [4] and in assay [6] was > 100 µM in each case. Besides, the TGI in [7] was > 100 µM.

For the compound `C(=C\C(Sc1ccccc1)c1ccccc1)/NNC1=NC(c2ccccc2)C(c2ccccc2)=NN1` (stereo not drawn), the TGI was > 100 µM in assay [1]; > 100 µM in [8]; 56 µM in assay [2]; > 100 µM in assay [3]; > 100 µM in assay [4]; > 100 µM in assay [5]. In assay [6], the TGI is > 100 µM.

As for `CCc1cc2c(O)c(c1)Cc1cc(CC)cc(c1O)Cc1cc(CC)cc(c1O)Cc1cc(CC)cc(c1O)Cc1cc(CC)cc(c1O)Cc1cc(CC)cc(c1O)Cc1cc(CC)cc(c1O)C2`, the TGI in assay [2], in assay [3], in assay [4], in assay [5], in assay [6] and in [7] was > 100 µM throughout.
